We go through one compound from patent US20250099485A1, “COMPOSITIONS FOR PROMOTING HAIR GROWTH” (ESTETRA SRL, priority 2021, published 2025).

In data set [1] the test system is hair matrix keratinocytes. The data set can be described thus: Hair follicle organ culture: hair matrix keratinocytes proliferation and apoptosis (Ki-67/TUNEL). It is filed as cell-based, human. The following applies: vs vehicle. The procedure:
(§1) 12-44 full-length frontotemporal hair follicles (HF) were obtained from four human female donors >50 years old. Donors were caucasian female subjects […], respectively (Donor 1: 12 temporal anagen HFs; Donor 2: 29; Donor 3: 44; Donor 4: 32). After microdissection from skin as described (Edelkamp et al., Methods Mol Biol, 2020, 2154:105-119; and Langan et al., Exp Dermatol, 2015, December; 24(12):903-1), HFs were placed in adequate culture medium and allowed a 24 h rest period to allow them to recover from the trauma of microdissection. Test substance (either vehicle (0.3% EtOH) or E4 at concentrations of 30 μM, 3 μM or 300 nM) was added to the medium at the end of the 24 h. Total culturing time was 5-7 days depending on the studied parameters and the experimental question. The experimental design for the hair follicle organ culture experiment is depicted in FIG. 12. Longer term culture experiments may be used to analyze the capacity to delay the onset of catagen.
Germinative hair matrix keratinocytes proliferate mostly during anagen. […] Apoptosis of hair matrix keratinocytes is used as an additional indicator of anagen/catagen transition.
Proliferation was assessed by quantification of the percentage of hair matrix keratinocytes in a clearly specified area (germinative hair matrix keratinocytes, below the Auber's line) that were positive for the proliferation marker Ki67 (or another proliferation marker such as BrdU or EdU), whereas apoptosis was assessed using TUNEL (TdT-mediated dUTP-biotin nick-end labelling) immunofluorescence (or another apoptosis marker such as activated caspase-3) in the same keratinocyte population (below the Auber's line) and in the precortical hair matrix keratincoytes (above the Auber's line) (Langan et al., Exp Dermatol 2015) (FIG. 13).

Data set [2] has as its system Normal Human Epidermal Keratinocytes (NHEKs). The data set is described as follows: Colonization of acellular area (IBIDI gap closure), keratinocytes. It is filed as cell-based. The following applies: 6 h and 24 h contact, cell gives time of significant effect; for NHEK Proliferation & Migration (colonization of acellular area vs ethanol control): absence of MMC; for NHEK Migration (+MMC) (colonization of acellular area vs ethanol control): presence of mitomycin C. The method, then:
The study consists in an in vitro assay aiming to evaluate the properties of E4 and E2 at 4 concentrations each on keratinocytes and fibroblasts. In this assay, the measurement of the colonization of a standard acellular surface generated from a confluent monolayer of cells using a dedicated culture device (IBIDI chamber) is performed. The assay is performed in absence and in presence of a proliferation inhibitor to focus on cell proliferation and migration or on migration only, respectively.
The study was performed using cultures of Normal Human foreskin-derived Epidermal Keratinocytes (NHEKs, Lonza). The cells were grown in serum free Epilife medium (ThermoFisher Scientific) supplemented with Human Keratinocyte Growth Supplement (HKGS, ThermoFisher Scientific) and antibiotics. The cells were maintained in a humidified incubator at 37° C. with a 5% CO2 atmosphere.
Cells were plated in 2-well silicone inserts with a defined cell free gap (IBIDI chambers; IBIDI GmbH, 80209) that was previously inserted on 12-well culture plates. This culture device allows to create a standardized 500 μm±100 μm cell free gap for monitoring cell colonization. 24 h after seeding, when the culture reached high confluency, cells in the insert were treated, or not, with mitomycin C (MMC) at 10 μg/ml during 2 h. After these 2 hours, the insert was removed, and cells were treated with E2 or E4 in presence or not of MMC for additional 2 h. Then, if appropriate, the culture medium was removed and cells were treated with E2 or E4 for 22 h, in absence of MMC.
For the assay, keratinocytes were plated in Epilife medium without HKGS and all the treatments were performed in this medium. Fibroblasts were plated in DMEM medium containing only 2.5% of FBS and the treatments were performed in absence of FBS.
E2 and E4 were applied at 4 concentrations each (10^−7M, 10^−8M, 10^−9M, 10^−10M). In parallel, cells were treated with a positive control (HKGS 1% for human keratinocytes and PDGF-BB at 10 ng/ml for human fibroblasts).
To monitor cell colonization and to evaluate the gap closure rate, pictures of the gap were taken after different times: at time 0 h, corresponding to the beginning of the treatment with E2 or E4 and to the removal of the culture insert, at time 6 h and at time 24 h (corresponding to the end of the treatments with E2 or E4). Pictures were taken with a microscope Zeiss (Axiover 25-10× objective) and with a camera Invenio2EIII (DeltaPix—Lux-Optic). The colonized areas were quantified from the pictures by the use of the WimAsis platform—WimScratch software. For each insert, 3 pictures were taken at each time. As each condition was performed in triplicates, it means a total of 9 pictures per condition and per time point of acquisition

Data set [3] deals with human hair follicles (HF). The data set can be described thus: Hair follicle organ culture: LDH release into the medium. It is filed as cell-based. The following applies: all tested concentrations (300 nM, 3 μM, 30 μM). The method, then:
as §1
LDH is released from the cytoplasm of damaged cells into the culture medium. Therefore, the cytotoxicity of agents can be estimated based on the activity of LDH present in the culture medium using a colorimetric assay (Cytotoxicity Detection Kit [LDH], Roche) as described (Gherardini et al Int J Cosmet Sci, 2019, April; 41(2):164-182). […]

In data set [4] the test system is mouse BMDM (bone marrow derived monocytes). The data set can be described thus: Immune cell polarization (qPCR NOS2/ARG1), mouse BMDM. Format: cell-based. The following applies: activated mouse bone marrow derived monocytes, qPCR marker. The method, then: Immune cell polarization was evaluated in vitro using markers for M1/TH-1 (NOS2) and M2/TH-2 (ARG1) phenotype with human monocytes and mouse monocytes (BMDM bone marrow derived monocytes).
An experiment was conducted to evaluate the anti-inflammatory effects of E4 or vehicle (negative control). qPCR methodology was used to assess the effects of E2 and E4 on immune cell polarization using well validated marker of pro-inflammatory (NOS2 for MI/TH-1 phenotype) and anti-inflammatory (ARG1 for ME/TH-2 phenotype) activity.
(In general: In qPCR the cycle at which signal appears reflects the starting amount.)

For `C[C@]12CC[C@@H]3c4ccc(O)cc4CC[C@H]3[C@@H]1[C@@H](O)[C@@H](O)[C@@H]2O` [E4, 1,3,5 (10)-estratrien-3,15alpha,16alpha,17beta-tetrol], the “hair matrix keratinocytes apoptosis (TUNEL)” value in data set [1] (300 nM, 3 μM, 30 μM) was “without affecting”. The “increased hair matrix keratinocytes proliferation (Ki-67)” value is given as “tendentially” in data set [1] (300 nM), “significantly” in data set [1] (3 μM) and “tendentially” in data set [1] (30 μM). The “NHEK Proliferation & Migration (colonization of acellular area vs ethanol control)” value in data set [2] (10^−7M) and in data set [2] (10^−10M) was “significantly increased the colonization of the acellular area” each time. The “NHEK Migration (+MMC) (colonization of acellular area vs ethanol control)” value in data set [2] (10^−7M) and in data set [2] (10^−10M) was “significantly increased the colonization of the acellular area” in each case. In data set [3], the “HF cytotoxicity (LDH release into the medium)” value is “did not induce HF cytotoxicity”. The “immune cell polarization, mouse BMDM” value in data set [4] is recorded as “switch from subtype M1 (pro-inflammatory) to subtype M2 (healing)”.
